In US11505575B2, “Cyclic polypeptides for PCSK9 inhibition” (Merck Sharp & Dohme LLC, priority 2018, dated 2022):
*1 amine or outer side, *2 acyl side, *3 side chain or, on linkers, in order; H or OH if unused. Where a SMILES comes first, the peptide text is derived from it. Bridges are numbered along the chain shown (N, C = ends). [ ]: non-standard residue; d: D form. Phe(4-guanidino) = N=C(N)Nc1ccc(C[C@H](N)C(=O)O)cc1; Trp(7-aza) = N[C@@H](Cc1c[nH]c2ncccc12)C(=O)O; X7 = O=C([C@H](Cc1cc[nH]c1)N[*:1])[*:2]; mXylylene = c1cc(C[*:1])cc(C[*:2])c1; Cha = N[C@@H](CC1CCCCC1)C(=O)O; Chg = N[C@H](C(=O)O)C1CCCCC1; Tle = CC(C)(C)[C@H](N)C(=O)O; αMeV = CC(C)[C@](C)(N)C(=O)O; hLys = NCCCCC[C@H](N)C(=O)O; αMeP = C[C@@]1(C(=O)O)CCCN1; hSer = N[C@@H](CCO)C(=O)O; Nva = CCC[C@H](N)C(=O)O; Aib = CC(C)(N)C(=O)O; Mpa = O=C(O)CCS

Molecular target: human PCSK9 / human LDLR EGFa domain interaction (Homo sapiens, UniProt Q8NBP7)
Sequence (Q8NBP7 153-692): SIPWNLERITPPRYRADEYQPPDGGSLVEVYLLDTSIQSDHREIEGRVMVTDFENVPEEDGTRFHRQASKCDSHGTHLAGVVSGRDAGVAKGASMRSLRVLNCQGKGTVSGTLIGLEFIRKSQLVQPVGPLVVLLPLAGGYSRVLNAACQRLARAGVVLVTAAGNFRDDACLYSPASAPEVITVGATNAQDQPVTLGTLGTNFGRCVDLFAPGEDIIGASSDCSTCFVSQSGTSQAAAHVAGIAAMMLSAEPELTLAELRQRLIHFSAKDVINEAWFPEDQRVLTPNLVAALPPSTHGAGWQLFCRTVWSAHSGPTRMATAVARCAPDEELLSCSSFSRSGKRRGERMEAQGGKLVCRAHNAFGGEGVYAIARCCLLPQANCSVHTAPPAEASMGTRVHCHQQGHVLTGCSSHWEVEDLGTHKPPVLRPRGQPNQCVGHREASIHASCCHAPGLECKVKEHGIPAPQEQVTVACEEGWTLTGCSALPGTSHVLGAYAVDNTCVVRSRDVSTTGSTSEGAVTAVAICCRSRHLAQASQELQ
Sequence (Q8NBP7 31-152 partner limits assumed): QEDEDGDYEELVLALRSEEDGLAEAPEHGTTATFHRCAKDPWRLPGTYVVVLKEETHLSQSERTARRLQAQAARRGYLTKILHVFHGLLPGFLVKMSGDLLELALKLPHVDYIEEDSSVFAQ
Assay: TR-FRET assay of inhibition of the PCSK9-LDLR protein-protein interaction
Format: binding
Details: 20 nM biotinylated human PCSK9 + 20 nM his-tagged human LDLR EGFa domain, 2 hours room temperature
Method: A time-resolved fluorescence resonance energy (TR-FRET) assay was used to measure inhibition of the PCSK9-LDLR protein-protein interaction. Briefly, 20 nM avitag-biotinylated human PCSK9 was incubated with 20 nM his-tagged human LDLR EGFa domain in the presence of 5 nM LANCE Ulight Streptavidin (Perkin Elmer) and 5 nM europium-Anti-6×His (Perkin Elmer) for 2 hours covered at room temperature in buffer containing 50 mM HEPES, 150 mM NaCl, 5 mM CaCl2, 0.01% BSA and 0.01% Surfactant P20. Compounds were tested in dose-response and concentrations giving half-maximal inhibition calculated using a 4-parameter fit equation.

Compound: CCC[C@@H]1NC(=O)[C@H](Cc2c[nH]c3ncccc23)NC(=O)[C@H]([C@@H](C)O)NC(=O)[C@H](CCC(=O)O)NC(=O)[C@H](Cc2ccc(O)cc2)NC(=O)[C@H](C(C)(C)C)NC(=O)CCSCc2cccc(c2)CSC[C@@H](C(N)=O)NC(=O)[C@H]([C@@H](C)O)NC(=O)[C@H](C2CCCCC2)NC(=O)[C@H](Cc2ccc(O)cc2)NC(=O)[C@H](CCCCN)NC1=O [Compound 047] ([Mpa][Tle]YET[Trp(7-aza)][Nva]KY[Chg]TC-NH2; linker 1-12 via mXylylene)
- IC50: 100 to 1000 nM

Compound: CCC[C@H](NC(=O)[C@H](Cc1c[nH]c2ncccc12)NC(=O)[C@H](NC(C)=O)[C@@H](C)O)C(=O)NC1CCC(=O)NCCCCCNC(=O)[C@H](Cc2ccc(O)cc2)NC(=O)[C@H](C(C)(C)C)NC(=O)CCSCc2cccc(c2)CSC[C@H](C(N)=O)NC(=O)[C@H]([C@@H](C)O)NC(=O)[C@H](C2CCCCC2)NC(=O)[C@H](Cc2ccc(O)cc2)NC1=O (stereo partly shown) [Compound 049]
- IC50: 1000 to 12100 nM

Compound: CCC[C@@H]1NC(=O)[C@H](Cc2c[nH]c3ncccc23)NC(=O)[C@H]([C@@H](C)O)NC(=O)[C@H](Cc2cnc[nH]2)NC(=O)[C@H](Cc2ccc(O)cc2)NC(=O)[C@H](C(C)(C)C)NC(=O)[C@@H](NC(=O)[C@H](CCCNC(=N)N)NC(C)=O)CSCc2cccc(c2)CSC[C@@H](C(N)=O)NC(=O)[C@H]([C@@H](C)O)NC(=O)[C@H](CCC)NC(=O)[C@H](Cc2ccc(O)cc2)NC(=O)[C@H](CCC(=O)O)NC1=O [Compound 050] (Ac-RC[Tle]YHT[Trp(7-aza)][Nva]EY[Nva]TC-NH2; linker 2-13 via mXylylene)
- IC50: 100 to 1000 nM

Compound: CCC[C@@H]1NC(=O)[C@H](Cc2ccc(NC(=N)N)cc2)NC(=O)[C@H]([C@@H](C)O)NC(=O)[C@H](Cc2cnc[nH]2)NC(=O)[C@H](Cc2ccc(O)cc2)NC(=O)[C@H](C(C)(C)C)NC(=O)CCSCc2cccc(c2)CSC[C@@H](C(N)=O)NC(=O)[C@H]([C@@H](C)O)NC(=O)[C@H](CCC)NC(=O)[C@H](Cc2ccc(O)cc2)NC(=O)[C@H](CCC(=O)O)NC1=O [Compound 055] ([Mpa][Tle]YHT[Phe(4-guanidino)][Nva]EY[Nva]TC-NH2; linker 1-12 via mXylylene)
- IC50: 1000 to 12100 nM

Compound: CCC[C@@H]1NC(=O)[C@H](Cc2c[nH]c3ncccc23)NC(=O)[C@H]([C@@H](C)O)NC(=O)[C@H](CCCCCN)NC(=O)[C@H](Cc2ccc(O)cc2)NC(=O)[C@H](C(C)(C)C)NC(=O)CCSCc2cccc(c2)CSC[C@@H](C(N)=O)NC(=O)[C@H]([C@@H](C)O)NC(=O)[C@H](CCC)NC(=O)[C@H](Cc2ccc(O)cc2)NC(=O)[C@H](CCC(=O)O)NC1=O [Compound 062] ([Mpa][Tle]Y[hLys]T[Trp(7-aza)][Nva]EY[Nva]TC-NH2; linker 1-12 via mXylylene)
- IC50: 100 to 1000 nM

Compound: CC(C)[C@]1(C)NC(=O)[C@H](Cc2ccc(O)cc2)NC(=O)[C@H](CCC(=O)O)NC(=O)C(C)(C)NC(=O)[C@H](Cc2c[nH]c3ncccc23)NC(=O)[C@H]([C@@H](C)O)NC(=O)[C@H](CCCCN)NC(=O)[C@H](Cc2ccc(O)cc2)NC(=O)[C@H](C(C)(C)C)NC(=O)CCSCc2cccc(c2)CSC[C@@H](C(N)=O)NC(=O)[C@H]([C@@H](C)O)NC1=O [Compound 063] ([Mpa][Tle]YKT[Trp(7-aza)][Aib]EY[αMeV]TC-NH2; linker 1-12 via mXylylene)
- IC50: 100 to 1000 nM

Compound: CCC[C@@H]1NC(=O)[C@H](Cc2c[nH]c3ncccc23)NC(=O)[C@H]([C@@H](C)O)NC(=O)[C@H](Cc2cnc[nH]2)NC(=O)[C@H](Cc2ccc(O)cc2)NC(=O)[C@H](C(C)(C)C)NC(=O)CCSCc2cccc(c2)CSC[C@@H](C(N)=O)NC(=O)[C@H]([C@@H](C)O)NC(=O)[C@H](CCO)NC(=O)[C@H](Cc2ccc(O)cc2)NC(=O)[C@H](CCC(=O)O)NC1=O [Compound 072] ([Mpa][Tle]YHT[Trp(7-aza)][Nva]EY[hSer]TC-NH2; linker 1-12 via mXylylene)
- IC50: 100 to 1000 nM

Compound: CCC[C@@H]1NC(=O)[C@H](Cc2ccc(O)cc2)NC(=O)[C@H](CCC(=O)O)NC(=O)[C@H](CCC)NC(=O)[C@H](Cc2c[nH]c3ncccc23)NC(=O)[C@H]([C@@H](C)O)NC(=O)[C@H](Cc2cnc[nH]2)NC(=O)[C@H](Cc2ccc(O)cc2)NC(=O)[C@H](C(C)(C)C)NC(=O)CCSCc2cccc(c2)CSC[C@@H](C(N)=O)NC(=O)[C@H](CCO)NC1=O [Compound 074] ([Mpa][Tle]YHT[Trp(7-aza)][Nva]EY[Nva][hSer]C-NH2; linker 1-12 via mXylylene)
- IC50: 100 to 1000 nM

Compound: CCC[C@@H]1NC(=O)[C@H](Cc2c[nH]c3ncccc23)NC(=O)[C@H]([C@@H](C)O)NC(=O)[C@H](Cc2c[nH]cn2)NC(=O)[C@H](Cc2ccc(O)cc2)NC(=O)[C@H](C(C)(C)C)NC(=O)CCSCc2cccc(c2)CSC[C@@H](C(N)=O)NC(=O)[C@H]([C@@H](C)O)NC(=O)[C@]2(C)CCCN2C(=O)[C@H](Cc2ccc(O)cc2)NC(=O)[C@H](CCC(=O)O)NC1=O [Compound 075] ([Mpa][Tle]YHT[Trp(7-aza)][Nva]EY[αMeP]TC-NH2; linker 1-12 via mXylylene)
- IC50: 100 to 1000 nM

Compound: CCC[C@@H]1NC(=O)[C@H](Cc2c[nH]c3ncccc23)NC(=O)[C@H]([C@@H](C)O)NC(=O)[C@H](Cc2cc[nH]c2)NC(=O)[C@H](Cc2ccc(O)cc2)NC(=O)[C@H](C(C)(C)C)NC(=O)CCSCc2cccc(c2)CSC[C@@H](C(N)=O)NC(=O)[C@]2(C)CCCN2C(=O)[C@H](Cc2ccc(O)cc2)NC(=O)[C@H](CCC(=O)O)NC1=O [Compound 076] ([Mpa][Tle]Y[X7]T[Trp(7-aza)][Nva]EY[αMeP]C-NH2; linker 1-11 via mXylylene)
- IC50: 100 to 1000 nM

Compound: CC(C)[C@]1(C)NC(=O)[C@H](Cc2ccc(O)cc2)NC(=O)[C@H](CCC(=O)O)NC(=O)C(C)(C)NC(=O)[C@H](Cc2c[nH]c3ncccc23)NC(=O)[C@H]([C@@H](C)O)NC(=O)[C@H](CCCCN)NC(=O)[C@H](Cc2ccc(O)cc2)NC(=O)[C@H](C(C)(C)C)NC(=O)CCSCc2cccc(c2)CSC[C@H](C(N)=O)NC(=O)[C@H]([C@@H](C)O)NC1=O [Compound 077] ([Mpa][Tle]YKT[Trp(7-aza)][Aib]EY[αMeV]T[dC]-NH2; linker 1-12 via mXylylene)
- IC50: 100 to 1000 nM

Compound: CCC[C@@H]1NC(=O)[C@H](Cc2ccc(O)cc2)NC(=O)[C@H](CCC(=O)O)NC(=O)[C@H](CC(C)C)NC(=O)[C@H](Cc2c[nH]c3ncccc23)NC(=O)[C@H]([C@@H](C)O)NC(=O)[C@H](Cc2cnc[nH]2)NC(=O)[C@H](Cc2ccc(O)cc2)NC(=O)[C@H](C(C)(C)C)NC(=O)CCSCc2cccc(c2)CSC[C@@H](C(N)=O)NC(=O)[C@H]([C@@H](C)O)NC1=O [Compound 078] ([Mpa][Tle]YHT[Trp(7-aza)]LEY[Nva]TC-NH2; linker 1-12 via mXylylene)
- IC50: 100 to 1000 nM

Compound: CCC[C@@H]1NC(=O)[C@H](Cc2ccc(O)cc2)NC(=O)[C@H](CCC(=O)O)NC(=O)[C@H](CC2CCCCC2)NC(=O)[C@H](Cc2c[nH]c3ncccc23)NC(=O)[C@H]([C@@H](C)O)NC(=O)[C@H](Cc2cnc[nH]2)NC(=O)[C@H](Cc2ccc(O)cc2)NC(=O)[C@H](C(C)(C)C)NC(=O)CCSCc2cccc(c2)CSC[C@@H](C(N)=O)NC(=O)[C@H]([C@@H](C)O)NC1=O [Compound 079] ([Mpa][Tle]YHT[Trp(7-aza)][Cha]EY[Nva]TC-NH2; linker 1-12 via mXylylene)
- IC50: 1000 to 12100 nM
